Assay results reported in patent publication US4479943A, “3-Demethoxyistamycin B, the 2"-N-formimidoyl derivative thereof and pharmaceutical composition containing same” (Zaidan Hojin Biseibutsu Kagaku Kenkyu Kai, priority 1982, dated 1984).
In brackets after ≈: the same amount, converted by molar mass.

How the values were obtained:
[1] = system: Escherichia coli K-12 LA290 R55; assay: Antibacterial MIC, standard serial dilution; format: cell-based; settings: nutrient agar, 37° C., 17 hours, as free base
[2] = system: Pseudomonas aeruginosa A3; assay: Antibacterial MIC, standard serial dilution; format: cell-based; settings: nutrient agar, 37° C., 17 hours, as free base
[3] = system: Staphylococcus aureus Smith; assay: Antibacterial MIC, standard serial dilution; format: cell-based; settings: nutrient agar, 37° C., 17 hours, as free base
Escherichia coli W677 = assay: Antibacterial MIC, standard serial dilution; format: cell-based; settings: nutrient agar, 37° C., 17 hours, as free base
[4] = system: Pseudomonas aeruginosa No. 12; assay: Antibacterial MIC, standard serial dilution; format: cell-based; settings: nutrient agar, 37° C., 17 hours, as free base
[5] = system: Klebsiella pneumoniae 22#3038; assay: Antibacterial MIC, standard serial dilution; format: cell-based; settings: nutrient agar, 37° C., 17 hours, as free base
[6] = system: Bacillus subtilis PCI 219; assay: Antibacterial MIC, standard serial dilution; format: cell-based; settings: nutrient agar, 37° C., 17 hours, as free base
Providencia sp. Pv16 = assay: Antibacterial MIC, standard serial dilution; format: cell-based; settings: nutrient agar, 37° C., 17 hours, as free base
[7] = system: Pseudomonas aeruginosa 21-75; assay: Antibacterial MIC, standard serial dilution; format: cell-based; settings: nutrient agar, 37° C., 17 hours, as free base
[8] = system: Escherichia coli K-12 LA290 R56; assay: Antibacterial MIC, standard serial dilution; format: cell-based; settings: nutrient agar, 37° C., 17 hours, as free base
[9] = system: Pseudomonas aeruginosa H11; assay: Antibacterial MIC, standard serial dilution; format: cell-based; settings: nutrient agar, 37° C., 17 hours, as free base
Serratia sp. SOU = assay: Antibacterial MIC, standard serial dilution; format: cell-based; settings: nutrient agar, 37° C., 17 hours, as free base
[10] = system: Pseudomonas aeruginosa K-Ps 102; assay: Antibacterial MIC, standard serial dilution; format: cell-based; settings: nutrient agar, 37° C., 17 hours, as free base
[11] = system: Staphylococcus aureus FDA 209P; assay: Antibacterial MIC, standard serial dilution; format: cell-based; settings: nutrient agar, 37° C., 17 hours, as free base
[12] = system: Escherichia coli K-12 ML1630; assay: Antibacterial MIC, standard serial dilution; format: cell-based; settings: nutrient agar, 37° C., 17 hours, as free base
Proteus rettgeri GN311 = assay: Antibacterial MIC, standard serial dilution; format: cell-based; settings: nutrient agar, 37° C., 17 hours, as free base
[13] = system: Pseudomonas aeruginosa GN315; assay: Antibacterial MIC, standard serial dilution; format: cell-based; settings: nutrient agar, 37° C., 17 hours, as free base
Providencia sp. 2991 = assay: Antibacterial MIC, standard serial dilution; format: cell-based; settings: nutrient agar, 37° C., 17 hours, as free base
Salmonella typhi T-63 = assay: Antibacterial MIC, standard serial dilution; format: cell-based; settings: nutrient agar, 37° C., 17 hours, as free base
[14] = system: Escherichia coli JR66/W677; assay: Antibacterial MIC, standard serial dilution; format: cell-based; settings: nutrient agar, 37° C., 17 hours, as free base
Sarcina lutea PCI 1001 = assay: Antibacterial MIC, standard serial dilution; format: cell-based; settings: nutrient agar, 37° C., 17 hours, as free base
Escherichia coli JR225 = assay: Antibacterial MIC, standard serial dilution; format: cell-based; settings: nutrient agar, 37° C., 17 hours, as free base
Proteus vulgaris 0X19 = assay: Antibacterial MIC, standard serial dilution; format: cell-based; settings: nutrient agar, 37° C., 17 hours, as free base
[15] = system: Escherichia coli K-12 R388; assay: Antibacterial MIC, standard serial dilution; format: cell-based; settings: nutrient agar, 37° C., 17 hours, as free base
[16] = system: Corynebacterium bovis 1810; assay: Antibacterial MIC, standard serial dilution; format: cell-based; settings: nutrient agar, 37° C., 17 hours, as free base
[17] = system: Pseudomonas maltophilia GN 907; assay: Antibacterial MIC, standard serial dilution; format: cell-based; settings: nutrient agar, 37° C., 17 hours, as free base
[18] = system: Bacillus cereus ATCC 10702; assay: Antibacterial MIC, standard serial dilution; format: cell-based; settings: nutrient agar, 37° C., 17 hours, as free base
[19] = system: Klebsiella pneumoniae PCI602; assay: Antibacterial MIC, standard serial dilution; format: cell-based; settings: nutrient agar, 37° C., 17 hours, as free base
Escherichia coli NIHJ = assay: Antibacterial MIC, standard serial dilution; format: cell-based; settings: nutrient agar, 37° C., 17 hours, as free base
Escherichia coli K-12 = assay: Antibacterial MIC, standard serial dilution; format: cell-based; settings: nutrient agar, 37° C., 17 hours, as free base
[20] = system: Shigella dysenteriae JS11910; assay: Antibacterial MIC, standard serial dilution; format: cell-based; settings: nutrient agar, 37° C., 17 hours, as free base
[21] = system: Micrococcus flavus FDA 16; assay: Antibacterial MIC, standard serial dilution; format: cell-based; settings: nutrient agar, 37° C., 17 hours, as free base
[22] = system: Staphylococcus aureus Ap01; assay: Antibacterial MIC, standard serial dilution; format: cell-based; settings: nutrient agar, 37° C., 17 hours, as free base
[23] = system: Pseudomonas aeruginosa 99; assay: Antibacterial MIC, standard serial dilution; format: cell-based; settings: nutrient agar, 37° C., 17 hours, as free base
[24] = system: Escherichia coli K-12 ML1629; assay: Antibacterial MIC, standard serial dilution; format: cell-based; settings: nutrient agar, 37° C., 17 hours, as free base
[25] = system: Escherichia coli K-12 J5R11-2; assay: Antibacterial MIC, standard serial dilution; format: cell-based; settings: nutrient agar, 37° C., 17 hours, as free base
Proteus rettgeri GN466 = assay: Antibacterial MIC, standard serial dilution; format: cell-based; settings: nutrient agar, 37° C., 17 hours, as free base
Bacillus anthracis = format: cell-based; settings: nutrient agar, 37° C., 17 hours, as free base
[26] = system: Bacillus subtilis NRRL B-558; assay: Antibacterial MIC, standard serial dilution; format: cell-based; settings: nutrient agar, 37° C., 17 hours, as free base
[27] = system: Pseudomonas aeruginosa TI-13; assay: Antibacterial MIC, standard serial dilution; format: cell-based; settings: nutrient agar, 37° C., 17 hours, as free base
[28] = system: Mycobacterium smegmatis ATCC 607; assay: Antibacterial MIC, standard serial dilution; format: cell-based; settings: nutrient agar, 37° C., 17 hours, as free base
[29] = system: Staphylococcus epidermidis 109; assay: Antibacterial MIC, standard serial dilution; format: cell-based; settings: nutrient agar, 37° C., 17 hours, as free base
[30] = system: Pseudomonas aeruginosa H9; assay: Antibacterial MIC, standard serial dilution; format: cell-based; settings: nutrient agar, 37° C., 17 hours, as free base
[31] = system: Escherichia coli K-12 C600 R135; assay: Antibacterial MIC, standard serial dilution; format: cell-based; settings: nutrient agar, 37° C., 17 hours, as free base
[32] = system: Salmonella enteritidis 1891; assay: Antibacterial MIC, standard serial dilution; format: cell-based; settings: nutrient agar, 37° C., 17 hours, as free base
[33] = system: Escherichia coli K-12 ML1410; assay: Antibacterial MIC, standard serial dilution; format: cell-based; settings: nutrient agar, 37° C., 17 hours, as free base
Serratia sp. 4 = assay: Antibacterial MIC, standard serial dilution; format: cell-based; settings: nutrient agar, 37° C., 17 hours, as free base
[34] = system: Pseudomonas aeruginosa B-13; assay: Antibacterial MIC, standard serial dilution; format: cell-based; settings: nutrient agar, 37° C., 17 hours, as free base
[35] = system: Pseudomonas aeruginosa PST1; assay: Antibacterial MIC, standard serial dilution; format: cell-based; settings: nutrient agar, 37° C., 17 hours, as free base
[36] = system: Pseudomonas aeruginosa ROS 134/PU21; assay: Antibacterial MIC, standard serial dilution; format: cell-based; settings: nutrient agar, 37° C., 17 hours, as free base
Serratia marcescens = assay: Antibacterial MIC, standard serial dilution; format: cell-based; settings: nutrient agar, 37° C., 17 hours, as free base
bacteria = settings: in words; earlier work; cited from earlier work

Compound: CNCC1CCC(N)C(OC2C(N)CC(O)C(N(C)C(=O)CN)C2O)O1 (stereo not shown) [Demethyl ista B, 3-O-demethylistamycin B]
- MIC [1]: 0.78 µg/mL (≈ 2.08 µM)
- MIC [2]: 0.20 µg/mL (≈ 0.533 µM)
- MIC [3]: 0.39 µg/mL (≈ 1.04 µM)
- MIC (Escherichia coli W677): 0.78 µg/mL (≈ 2.08 µM)
- MIC [4]: 12.5 µg/mL (≈ 33.3 µM)
- MIC [5]: 3.13 µg/mL (≈ 8.34 µM)
- MIC [6]: 0.39 µg/mL (≈ 1.04 µM)
- MIC (Providencia sp. Pv16): 0.78 µg/mL (≈ 2.08 µM)
- MIC [7]: 25 µg/mL (≈ 66.6 µM)
- MIC [8]: 0.78 µg/mL (≈ 2.08 µM)
- MIC [9]: 25 µg/mL (≈ 66.6 µM)
- MIC (Serratia sp. SOU): 6.25 µg/mL (≈ 16.6 µM)
- MIC [10]: 6.25 µg/mL (≈ 16.6 µM)
- MIC [11]: 0.39 µg/mL (≈ 1.04 µM)
- MIC [12]: 3.13 µg/mL (≈ 8.34 µM)
- MIC (Proteus rettgeri GN311): 0.39 µg/mL (≈ 1.04 µM)
- MIC [13]: 6.25 µg/mL (≈ 16.6 µM)
- MIC (Providencia sp. 2991): 1.56 µg/mL (≈ 4.15 µM)
- MIC (Salmonella typhi T-63): 0.39 µg/mL (≈ 1.04 µM)
- MIC [14]: 1.56 µg/mL (≈ 4.15 µM)
- MIC (Sarcina lutea PCI 1001): 0.39 µg/mL (≈ 1.04 µM)
- MIC (Escherichia coli JR225): 0.78 µg/mL (≈ 2.08 µM)
- MIC (Proteus vulgaris 0X19): 0.39 µg/mL (≈ 1.04 µM)
- MIC [15]: 0.78 µg/mL (≈ 2.08 µM)
- MIC [16]: 0.39 µg/mL (≈ 1.04 µM)
- MIC [17]: 100 µg/mL (≈ 266 µM)
- MIC [18]: 1.56 µg/mL (≈ 4.15 µM)
- MIC [19]: 1.56 µg/mL (≈ 4.15 µM)
- MIC (Escherichia coli NIHJ): 0.39 µg/mL (≈ 1.04 µM)
- MIC (Escherichia coli K-12): 0.78 µg/mL (≈ 2.08 µM)
- MIC [20]: 3.13 µg/mL (≈ 8.34 µM)
- MIC [21]: 3.13 µg/mL (≈ 8.34 µM)
- MIC [22]: 0.39 µg/mL (≈ 1.04 µM)
- MIC [23]: 25 µg/mL (≈ 66.6 µM)
- MIC [24]: 1.56 µg/mL (≈ 4.15 µM)
- MIC [25]: 1.56 µg/mL (≈ 4.15 µM)
- MIC (Proteus rettgeri GN466): 0.39 µg/mL (≈ 1.04 µM)
- MIC (Bacillus anthracis): 0.78 µg/mL (≈ 2.08 µM)
- MIC [26]: 0.39 µg/mL (≈ 1.04 µM)
- MIC [27]: 6.25 µg/mL (≈ 16.6 µM)
- MIC [28]: 0.78 µg/mL (≈ 2.08 µM)
- MIC [29]: 0.39 µg/mL (≈ 1.04 µM)
- MIC [30]: 12.5 µg/mL (≈ 33.3 µM)
- MIC [31]: 1.56 µg/mL (≈ 4.15 µM)
- MIC [32]: 1.56 µg/mL (≈ 4.15 µM)
- MIC [33]: 3.13 µg/mL (≈ 8.34 µM)
- MIC (Serratia sp. 4): 12.5 µg/mL (≈ 33.3 µM)
- MIC [34]: 25 µg/mL (≈ 66.6 µM)
- MIC [35]: 12.5 µg/mL (≈ 33.3 µM)
- MIC [36]: 50 µg/mL (≈ 133 µM)
- MIC (Serratia marcescens): 1.56 µg/mL (≈ 4.15 µM)
- antibacterial activity (bacteria): active not only against Pseudomonas aeruginosa but also against a variety of resistant bacteria
